Data set [1] in a line: Lipophilicity, log D of the compound at pH 7.4. It counts as physicochemical. Conditions: buffer.
The nature of data set [2]: Thermodynamic solubility of the compound in Japanese pharmacopoeia disintegration solution 2 containing bile acid at pH 6.8 after 18 hrs by HPLC analysis. It counts as physicochemical. The settings on record: read-out: Therm_solubility.
Data set [3] can be described thus: Metabolic stability in mouse liver microsomes at 1 umol/L. The settings on record: read-out: Stability. It counts as ADME, Microsome.
Data set [4] can be described thus: Metabolic stability in human liver microsomes at 1 umol/L. The class given is ADME, Microsome. The settings on record: read-out: Stability. Background: Liver microsomes are vesicles of endoplasmic reticulum, rich in cytochrome P450 enzymes.
The nature of data set [5]: Drug uptake in athymic BALB/cAcl-nu/nu mouse lung xenografted with human A549 cells at 1 mg/kg, po measured at 8 hrs by LC/MS/MS analysis. It counts as ADME, organism-based. Also noted: dose 1 mg/kg, route oral. Conditions: read-out: Drug uptake.
Data set [6] in a line: Plasma concentration in athymic BALB/cAcl-nu/nu mouse xenografted with human A549 cells at 1 mg/kg, po measured at 8 hrs by LC/MS/MS analysis. The class given is ADME, organism-based. Also noted: dose 1 mg/kg, route oral. For orientation: A xenograft is tissue or cells of one species grown in another, often human tumour cells in immunodeficient mice.
A short description of data set [7]: Drug uptake in athymic BALB/cAcl-nu/nu mouse lung xenografted with human A549 cells at 1 mg/kg, po measured at 1 hr by LC/MS/MS analysis. The class given is ADME, organism-based. Also noted: dose 1 mg/kg, route oral. Conditions: read-out: Drug uptake.
Data set [8] can be described thus: Plasma concentration in athymic BALB/cAcl-nu/nu mouse xenografted with human A549 cells at 1 mg/kg, po measured at 1 hr by LC/MS/MS analysis. The class given is ADME, organism-based. Also noted: dose 1 mg/kg, route oral.
Data set [9] can be described thus: Oral bioavailability in cynomolgus monkey at 0.5 mg/kg. The settings on record: in vivo. It counts as ADME, organism-based, Macaca fascicularis.
Data set [10] in a line: Oral bioavailability in Crl:CD (SD) albino rat at 0.5 mg/kg. The settings on record: in vivo. The class given is ADME, organism-based.
The nature of data set [11]: Mean residence time in Crl:CD (SD) albino rat at 0.5 mg/kg, po. The class given is ADME, organism-based. Also noted: dose 0.5 mg/kg, route oral. Conditions: in vivo.
A short description of data set [12]: Mean residence time in cynomolgus monkey at 0.5 mg/kg, po. It counts as ADME, organism-based, Macaca fascicularis. Also noted: dose 0.5 mg/kg, route oral. Conditions: in vivo.
Data set [13] can be described thus: AUC (0 to 48 hrs) in cynomolgus monkey at 0.5 mg/kg, po. The class given is ADME, organism-based, Macaca fascicularis. Also on record: time < 48 hr, dose 0.5 mg/kg, route oral. The settings on record: plasma.
A short description of data set [14]: AUC (0 to 24 hrs) in Crl:CD (SD) albino rat at 0.5 mg/kg, po. The class given is ADME, organism-based. Also on record: time < 24 hr, dose 0.5 mg/kg, route oral. Conditions: plasma.
Data set [15] in a line: Tmax in Crl:CD (SD) albino rat at 0.5 mg/kg, po. Also on record: dose 0.5 mg/kg, route oral. The settings on record: in vivo. It counts as ADME, organism-based.
Data set [16] in a line: Tmax in cynomolgus monkey at 0.5 mg/kg, po. The settings on record: in vivo. Also noted: dose 0.5 mg/kg, route oral. It counts as ADME, organism-based, Macaca fascicularis.
Data set [17] in a line: Cmax in cynomolgus monkey at 0.5 mg/kg, po. Also noted: dose 0.5 mg/kg, route oral. The settings on record: in vivo. It counts as ADME, organism-based, Macaca fascicularis.
Data set [18] is described as follows: Cmax in Crl:CD (SD) albino rat at 0.5 mg/kg, po. Also noted: dose 0.5 mg/kg, route oral. It counts as ADME, organism-based. The settings on record: in vivo.
The nature of data set [19]: Total plasma clearance in cynomolgus monkey at […], iv. The class given is ADME, organism-based, Macaca fascicularis. Also on record: dose 0.25 mg/kg, route intravenous.
The nature of data set [20]: Total plasma clearance in Crl:CD (SD) albino rat at […], iv. Also on record: dose 0.25 mg/kg, route intravenous. It counts as ADME, organism-based.
Data set [21] is described as follows: Volume of distribution at steady state in cynomolgus monkey at […], iv. Also noted: dose 0.25 mg/kg, route intravenous. Conditions: in vivo, read-out: Vdss. The class given is ADME, organism-based, Macaca fascicularis.
Data set [22] can be described thus: Volume of distribution at steady state in Crl:CD (SD) albino rat at […], iv. The class given is ADME, organism-based. Also on record: dose 0.25 mg/kg, route intravenous. The settings on record: in vivo, read-out: Vdss.
A short description of data set [23]: AUC (0 to 48 hrs) in cynomolgus monkey at […], iv. The settings on record: plasma. Also noted: time < 48 hr, dose 0.25 mg/kg, route intravenous. It counts as ADME, organism-based, Macaca fascicularis.
Data set [24] is described as follows: AUC (0 to 24 hrs) in Crl:CD (SD) albino rat at […], iv. It counts as ADME, organism-based. Also noted: time < 24 hr, dose 0.25 mg/kg, route intravenous. The settings on record: plasma.

The results in this text go back to ChEMBL document CHEMBL2346507 (Bioorg Med Chem, 2013).

Broadly, the logD is the decadic logarithm of the distribution of all forms, ionised or not, between an organic phase and buffer at a given pH. A word on the bioavailability: it is dose-corrected exposure relative to a reference, in per cent. In general, MRT refers to a mean duration of stay, worked out from the concentration-time curve. As usually defined, the AUC(0-t) is the area under the concentration-time curve up to a stated or last time point. The Tmax is the time from dosing to the highest level. What is called Cmax is the maximum level reached in the sampled fluid or tissue. As a reminder, the clearance is the volume of plasma or blood freed of the substance per unit of time.

In brackets after ≈: the same amount, converted by molar mass.

Turning to `Cc1cc(C(=O)Nc2cc(Oc3ccc4nc(NC(=O)C5CC5)cn4n3)ccc2F)n(C)n1`, the logD in data set [1] was 2.21. Also, the solubility thermodynamic at 18 h in [2] was found to be 14 µg/mL (≈ 31.1 µM). Also, the microsomal CLint at 1 µM in data set [3] is 54 µL/min/mg; in data set [4], 9 µL/min/mg.
Compound `Cc1cc(C(=O)Nc2cccc(Oc3ccc4nc(NC(=O)C5CC5)cn4n3)c2)n(C)n1` gave a logD in data set [1] of 2.28. In addition, in [2], the solubility thermodynamic at 18 h worked out at 3.7 µg/mL (≈ 8.58 µM). Moreover, the microsomal CLint at 1 µM came out at 43 µL/min/mg in data set [3] and 6 µL/min/mg in data set [4].
As to `Cc1cc(C(=O)Nc2cc(Oc3ccc4nc(NC(=O)C5CC5)cn4n3)ccc2C)n(C)n1` [TAK-593], the concentration at 8 h was under 15 ng/g in [5] and under 3 ng/mL in [6]. Moreover, the concentration at 1 h was determined as 242 ng/g in [7] and 451 ng/mL in data set [8]. Besides, the bioavailability was found to be 57.6% in [9] and 19.8% in data set [10]. Moreover, the MRT stood at 3.3 h in data set [11] and 11 h in [12]. For the same compound, the AUC(0-t) at 48 h in data set [13] worked out at 1510 ng·h/mL; in data set [23], 1310 ng·h/mL. In addition, the AUC(0-t) at 24 h in data set [14] is 226 ng·h/mL; in data set [24], 571 ng·h/mL. Also, the Tmax was determined as 1.3 h in data set [15] and 2.8 h in data set [16]. Further, the Cmax in data set [17] stood at 129 ng/mL; in data set [18], 56 ng/mL. Moreover, the clearance in [19] is 3.18 mL/min/kg; in data set [20], 7.3 mL/min/kg. The Vd in data set [21] is 1.03 L/kg; in data set [22] it was 0.471 L/kg. In addition, the logD in data set [1] is 2.24. For the same compound, in [2], the solubility thermodynamic at 18 h is 38 µg/mL (≈ 85.3 µM). Besides, the figures for the microsomal CLint at 1 µM in data set [3] and in data set [4] were 31 µL/min/mg and 2 µL/min/mg, respectively.
